According to patent US6277829A, “Process for preparing of aqueous formulation for opthalmic use” (S.I.F.I. Societa Industria Farmaceutica Italiana S.p.A., priority 1999, dated 2001):
≈ marks a conversion by molar mass, not a printed value.

Assays:
in vivo [1] = settings: rabbit, topical or ocular, Ct (tissue concentration of azithromycin)
Experimental: (§1) Twelve male white New Zealand rabbits (weighing 1.8-2.3 kg) have been randomly divided in three groups (consisting of four animals each).
(§2) I Group: three instillations (animals have been sacrificed 6 hours after the first dosing)
(§3) II Group: six instillations (animals have been sacrificed 12 hours after the first dosing)
(§4) III Group: six instillations (animals have been sacrificed 24 hours after the first dosing)
(§5) Aqueous humor has been drawn away with a 23-gauge needle attached to an insulin syringe of 1 ml. After enucleation the cornea has been excised at the limbus and removed from the eyeball. All specimens have been carefully weighed, then immediately frozen at -20° C. […] Each specimen has been ground and homogenized with 1 ml of PBS (2 min., 24,000 rpm). The suspension has been mixed with an equal volume of acetonitrile and stored at 0° C. After 1 hour, the samples have been centrifuged at 0° C. […] Aqueous humor has been directly mixed with acetonitrile before being centrifuged.

in vivo [2] = experiment: in vivo; design: species or system white New Zealand rabbits; settings: rabbit, topical or ocular, Ct (tissue concentration of azithromycin)
Experimental: as §1, §2, §3, §4, §5

S. aureus ATCC 29213 = experiment: In vitro antibacterial activity, MIC; type: cell-based; settings: Staphylococcus aureus
Description: (§6) In vitro bacteriostatic/bactericidal activity of azithromycin in different ophthalmic solutions has been evaluated as a function of ([H+]). Assessment of the activity it has been carried out by standardized method recommended by the National Committee for Clinical Laboratory Standards (NCCLS). In particular, three azithromycin solutions at different pH (6.5, 7.2, 7.8) in citrate-phosphate have been examined. Accordingly, three aliquots of Mueller-Hinton broth have been adjusted to the same pH of the azithromycin solutions (three) to be tested.
(§7) MIC values (μg/ml) have been measured by turbidity standard method after incubation of azithromycin aliquots, at the different pH, ranging from 18 to 24 h. Incubation for Staphylococcus spp. and Pseudomonas spp. needs aerobic conditions whereas Streptococcus spp. and Haernophilus spp. require partial anaerobic conditions during the period of incubation (5%, CO2).
(§8) Concentration of azithromycin able to inhibit the growth of the bacteria, after the period of incubation, is defined as the minimum inhibitory concentration (MIC).

H. influenzae ATCC 49247 = experiment: In vitro antibacterial activity, MIC; type: cell-based; settings: Haemophilus influenzae
Description: as §6, §7, §8

[3] = system: Ps. aeruginosa ATCC 27853; experiment: In vitro antibacterial activity, MIC; type: cell-based; settings: Pseudomonas aeruginosa
Description: as §6, §7, §8

[4] = system: S. epidermidis ATCC 12228; experiment: In vitro antibacterial activity, MIC; type: cell-based; settings: Staphylococcus epidermidis
Description: as §6, §7, §8

[5] = system: St. Pneumoniae ATCC 49619; experiment: In vitro antibacterial activity, MIC; type: cell-based; settings: Streptococcus pneumoniae
Description: as §6, §7, §8

Ps. aeruginosa ATCC 9027 = experiment: In vitro antibacterial activity, MIC; type: cell-based; settings: Pseudomonas aeruginosa
Description: as §6, §7, §8

S. aureus ATCC 6538P = experiment: In vitro antibacterial activity, MIC; type: cell-based; settings: Staphylococcus aureus, ATCC6538P
Description: as §6, §7, §8

S. aureus ATCC 25923 = experiment: In vitro antibacterial activity, MIC; type: cell-based; settings: Staphylococcus aureus
Description: as §6, §7, §8

H. influenzae ATCC 9006 = experiment: In vitro antibacterial activity, MIC; type: cell-based; settings: Haemophilus influenzae
Description: as §6, §7, §8

St. Pryogenes ATCC 21547 = experiment: In vitro antibacterial activity, MIC; type: cell-based
Description: as §6, §7, §8

Staphylococcus aureus = experiment: MIC90 for Staphylococcus aureus; type: cell-based

What does the source list for `CC[C@H]1OC(=O)[C@H](C)[C@@H](O[C@H]2C[C@@](C)(OC)[C@@H](O)[C@H](C)O2)[C@H](C)[C@@H](O[C@@H]2O[C@H](C)C[C@H](N(C)C)[C@H]2O)[C@](C)(O)C[C@@H](C)CN(C)[C@H](C)[C@@H](O)[C@]1(C)O` [azithromycin]?
concentration at 6 h (in vivo [1]): < 100000 ng/g; concentration at 24 h (in vivo [1]): 216000 ng/g; concentration at 12 h (in vivo [1]; Average): 222000 ng/g; concentration at 24 h (in vivo [1]; Average): 169000 ng/g; concentration at 6 h (in vivo [2]): < 200000 ng/g; concentration at 6 h (in vivo [2]; Average): 250000 ng/g; concentration at 24 h (in vivo [2]; Average): 420000 ng/g; MIC (S. aureus ATCC 29213; ATCC29213, pH 6.5): 3.25 µg/mL (≈ 4.34 µM); MIC (S. aureus ATCC 29213; ATCC29213, pH 7.2): 2.25 µg/mL (≈ 3 µM); MIC (S. aureus ATCC 29213; ATCC29213, pH 7.8): 1 µg/mL (≈ 1.34 µM); MIC (H. influenzae ATCC 49247; ATCC49247, pH 6.5): 3 µg/mL (≈ 4.01 µM); MIC (H. influenzae ATCC 49247; ATCC49247, pH 7.2): 2 µg/mL (≈ 2.67 µM); MIC (H. influenzae ATCC 49247; ATCC49247, pH 7.8): 1 µg/mL (≈ 1.34 µM); MIC ([3]; ATCC27853, pH 6.5): > 200 µg/mL; MIC ([3]; ATCC27853, pH 7.2): 50 µg/mL (≈ 66.8 µM); MIC ([3]; ATCC27853, pH 7.8): 12.5 µg/mL (≈ 16.7 µM); MIC ([4]; ATCC12228, pH 6.5): 2.5 µg/mL (≈ 3.34 µM); MIC ([4]; ATCC12228, pH 7.2): 1.5 µg/mL (≈ 2 µM); MIC ([4]; ATCC12228, pH 7.8): 0.75 µg/mL (≈ 1 µM); MIC ([5]; ATCC49619, pH 6.5): 1.25 µg/mL (≈ 1.67 µM); MIC ([5]; ATCC49619, pH 7.2): 0.25 µg/mL (≈ 0.334 µM); MIC ([5]; ATCC49619, pH 7.8): 0.15 µg/mL (≈ 0.2 µM); MIC (Ps. aeruginosa ATCC 9027; ATCC9027, pH 6.5): 200 µg/mL (≈ 267 µM); MIC (Ps. aeruginosa ATCC 9027; ATCC9027, pH 7.2): 25 µg/mL (≈ 33.4 µM); MIC (Ps. aeruginosa ATCC 9027; ATCC9027, pH 7.8): 6.25 µg/mL (≈ 8.34 µM); MIC (S. aureus ATCC 6538P; pH 6.5): 2.25 µg/mL (≈ 3 µM); MIC (S. aureus ATCC 6538P; pH 7.2): 1 µg/mL (≈ 1.34 µM); MIC (S. aureus ATCC 6538P; pH 7.8): 0.75 µg/mL (≈ 1 µM); MIC (S. aureus ATCC 25923; ATCC25923, pH 6.5): 3 µg/mL (≈ 4.01 µM); MIC (S. aureus ATCC 25923; ATCC25923, pH 7.2): 1.5 µg/mL (≈ 2 µM); MIC (S. aureus ATCC 25923; ATCC25923, pH 7.8): 0.75 µg/mL (≈ 1 µM); MIC (H. influenzae ATCC 9006; ATCC9006, pH 6.5): 3 µg/mL (≈ 4.01 µM); MIC (H. influenzae ATCC 9006; ATCC9006, pH 7.2): 2 µg/mL (≈ 2.67 µM); MIC (H. influenzae ATCC 9006; ATCC9006, pH 7.8): 0.5 µg/mL (≈ 0.668 µM); MIC (St. Pryogenes ATCC 21547; pH 6.5): 1.5 µg/mL (≈ 2 µM); MIC (St. Pryogenes ATCC 21547; pH 7.2): 0.37 µg/mL (≈ 0.494 µM); MIC (St. Pryogenes ATCC 21547; pH 7.8): 0.2 µg/mL (≈ 0.267 µM); MIC90 (Staphylococcus aureus): 2.25 µg/mL (≈ 3 µM)
